Data taken from the supplement of paper PMC10307832.

Legend:
Assay in all cases: relative viability (nuclei count vs DMSO), 5 days (fraction); higher = more cells survive
Ibrutinib + Lapatinib = compound: C=CC(=O)N1CCC[C@@H](n2nc(-c3ccc(Oc4ccccc4)cc3)c3c(N)ncnc32)C1 [Ibrutinib] + CS(=O)(=O)CCNCc1ccc(-c2ccc3ncnc(Nc4ccc(OCc5cccc(F)c5)c(Cl)c4)c3c2)o1 [Lapatinib] (partner 2 µM)
Method in brief: (§1)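 Relative viability equals treated-well nuclei counts divided by vehicle-well nuclei counts. Counts came from 4× images of lung cancer cell lines grown in 1536-well plates for 5 days after pin-tool dosing on the day after seeding. Dosing used one drug alone or a fixed anchor-drug dose plus five library-drug doses (not always all listed) in √10 steps, and values are medians of duplicate plates.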

Ibrutinib + Decitabine = compound: C=CC(=O)N1CCC[C@@H](n2nc(-c3ccc(Oc4ccccc4)cc3)c3c(N)ncnc32)C1 [Ibrutinib] + Nc1ncn([C@H]2C[C@H](O)[C@@H](CO)O2)c(=O)n1 [Decitabine] (partner 2 µM)
Method in brief: as §1

Ibrutinib + AZD7762 = compound: C=CC(=O)N1CCC[C@@H](n2nc(-c3ccc(Oc4ccccc4)cc3)c3c(N)ncnc32)C1 [Ibrutinib] + NC(=O)Nc1cc(-c2cccc(F)c2)sc1C(=O)N[C@H]1CCCNC1 [AZD7762] (partner 0.2 µM)
Method in brief: as §1

PAC-1 + Linsitinib = compound: C=CCc1cccc(/C=N/NC(=O)CN2CCN(Cc3ccccc3)CC2)c1O [PAC-1] + C[C@]1(O)C[C@@H](c2nc(-c3ccc4ccc(-c5ccccc5)nc4c3)c3c(N)nccn32)C1 [Linsitinib] (partner 1 µM)
Method in brief: as §1

| Cell Line | relative viability (Ibrutinib + Lapatinib; first compound 0.005 µM) | relative viability (Ibrutinib + Lapatinib; first compound 0.01581 µM) | relative viability (Ibrutinib + Lapatinib; first compound 0.05 µM) | relative viability (Ibrutinib + Lapatinib; first compound 0.1581 µM) | relative viability (Ibrutinib + Lapatinib; first compound 0.5 µM) | relative viability (Ibrutinib + Decitabine; first compound 0.005 µM) | relative viability (Ibrutinib + Decitabine; first compound 0.01581 µM) | relative viability (Ibrutinib + Decitabine; first compound 0.05 µM) | relative viability (Ibrutinib + Decitabine; first compound 0.1581 µM) | relative viability (Ibrutinib + Decitabine; first compound 0.5 µM) | relative viability (Ibrutinib + AZD7762; first compound 0.005 µM) | relative viability (Ibrutinib + AZD7762; first compound 0.01581 µM) | relative viability (Ibrutinib + AZD7762; first compound 0.05 µM) | relative viability (Ibrutinib + AZD7762; first compound 0.1581 µM) | relative viability (Ibrutinib + AZD7762; first compound 0.5 µM) | relative viability (PAC-1 + Linsitinib; first compound 0.02 µM) | relative viability (PAC-1 + Linsitinib; first compound 0.06325 µM) | relative viability (PAC-1 + Linsitinib; first compound 0.2 µM) | relative viability (PAC-1 + Linsitinib; first compound 2 µM) |
| --- | --- | --- | --- | --- | --- | --- | --- | --- | --- | --- | --- | --- | --- | --- | --- | --- | --- | --- | --- |
| LOU-NH91 | 0.638 | 0.786 | 0.774 | 0.737 | 0.694 | 0.786 | 0.745 | 0.762 | 0.807 | 0.648 | 0.684 | 0.701 | 0.717 | 0.801 | 0.754 | 0.925 | 0.964 | 0.906 | 0.915 |
| LU99A | 0.936 | 1.08 | 1.1 | 1.04 | 0.995 | 0.857 | 0.796 | 0.947 | 0.937 | 0.874 | 0.258 | 0.357 | 0.338 | 0.438 | 0.288 | 0.562 | 0.514 | 0.518 | 0.489 |
| LXF-289 | 0.918 | 0.903 | 0.932 | 0.88 | 0.923 | 0.357 | 0.295 | 0.381 | 0.38 | 0.342 | 1.22 | 1.07 | 1.06 | 1.1 | 1.15 | 0.972 | 0.992 | 0.946 | 0.909 |
| NCI-H23 | 0.943 | 1.19 | 1.18 | 1.15 |  | 0.313 | 0.343 | 0.339 | 0.298 | 0.339 | 0.263 | 0.237 | 0.234 | 0.218 | 0.283 | 0.534 | 0.574 | 0.564 | 0.505 |
| NCI-H322M | 0.527 | 0.652 | 0.621 | 0.512 | 0.585 | 0.662 | 0.637 | 0.664 | 0.634 | 0.505 | 0.432 | 0.527 | 0.514 | 0.486 | 0.502 | 0.907 | 0.889 | 0.817 | 0.928 |
| NCI-H358 | 0.403 | 0.466 | 0.475 | 0.406 | 0.43 | 0.176 | 0.204 |  | 0.232 | 0.136 | 0.404 | 0.349 | 0.282 | 0.515 | 0.29 | 0.657 | 0.786 | 0.709 | 0.506 |
| NCI-H460 | 1.18 | 0.892 | 0.96 | 0.94 | 1.11 | 0.541 | 0.419 | 0.503 | 0.497 | 0.551 | 0.634 | 0.563 | 0.646 | 0.622 | 0.659 | 0.701 | 0.81 | 0.78 | 0.405 |
| NCI-H596 | 1.86 | 1.1 | 1.02 | 0.988 | 1.08 | 1.12 | 1.1 | 1.88 | 0.936 | 0.942 | 0.996 | 1.15 | 1.32 |  | 0.928 | 0.891 | 0.977 | 1.08 | 1.03 |
| NCI-H647 | 0.799 | 0.934 | 1.06 | 1.11 | 1.19 | 0.341 | 0.331 | 0.411 | 0.244 | 0.409 | 0.413 | 0.534 | 0.529 | 0.3 | 0.497 | 1.05 | 1.19 | 1.2 | 0.807 |
| NCI-H650 |  | 0.867 |  | 1 | 0.883 | 0.384 | 0.325 | 0.335 | 0.37 | 0.319 | 1.02 | 0.858 | 0.94 | 1.15 | 1.02 | 0.887 | 0.912 | 0.761 | 0.676 |
| NCI-H727 | 0.734 | 0.735 | 1.2 | 0.496 | 0.852 | 0.617 | 1.04 | 0.806 | 0.506 | 0.804 | 0.404 | 0.664 | 0.524 | 0.416 | 0.555 | 0.281 | 0.283 | 0.272 | 0.317 |
| NCI-H838 | 0.796 | 0.893 | 1 | 0.894 | 1.08 | 0.552 | 0.466 | 0.497 | 0.476 | 0.451 | 0.739 | 0.876 | 0.985 | 0.946 | 0.943 | 1.02 | 0.982 | 0.925 | 1.15 |
| NCI-H1355 |  | 0.975 | 1.07 | 0.92 | 0.963 |  | 0.355 | 0.367 | 0.318 | 0.363 |  | 0.768 | 0.846 | 0.9 | 0.72 | 0.74 | 0.89 | 0.806 | 0.803 |
| NCI-H1395 | 1.1 | 1.04 | 1.04 | 0.869 | 1.05 | 0.777 | 0.688 | 0.811 | 0.697 | 0.75 | 0.405 | 0.403 | 0.387 | 0.404 | 0.413 | 1.02 | 1.15 | 0.842 | 0.958 |
| NCI-H1437 | 0.799 | 0.677 | 0.775 | 0.604 | 0.893 | 0.59 | 0.559 | 0.507 | 0.609 | 0.53 | 1.12 | 1.12 | 1.08 | 1.08 | 1.16 | 0.986 | 1.02 | 0.911 | 0.71 |
| NCI-H1651 | 0.699 | 0.756 | 0.796 | 0.723 | 0.906 | 0.426 | 0.693 | 0.56 | 0.465 | 0.53 | 0.306 | 0.459 | 0.452 | 0.464 | 0.48 | 0.823 | 0.933 | 0.992 | 1.12 |
| NCI-H1666 | 0.722 | 0.583 | 0.814 | 0.749 | 0.761 | 0.569 | 0.782 | 0.666 | 0.663 | 0.632 | 0.803 | 0.777 | 0.843 | 0.892 | 0.783 | 0.986 | 0.789 | 0.983 | 0.891 |
